From patent publication US7718670B2 (dated 2010)

melting point [°C] | Structure (SMILES)
54.4 to 58.3 | C=CCC(O)(C(=O)N[C@H]1CN2CCC1CC2)c1cccs1 (stereo partly shown)
142 | O=C(N[C@H]1CN2CCC1CC2)C(Cc1ccccc1)c1ccccc1 (stereo partly shown)
69.8 to 73.3 | O=C(N[C@H]1CN2CCC1CC2)C(O)(c1ccccc1)C1CCCC1 (stereo partly shown)
136 | CCCCC(C(=O)N[C@H]1CN2CCC1CC2)c1ccccc1 (stereo partly shown)
318 | C[N+]12CCC(CC1)C(NC(=O)C1c3ccccc3Oc3ccccc31)C2.[Br-] (stereo not shown)
197.5 to 203.6 | C[N+]12CCC(CC1)C(NC(=O)C1(O)c3ccccc3-c3ccccc31)C2.[Br-] (stereo not shown)
264 | O=C(NC1C[N+]2(CCCOc3ccccc3)CCC1CC2)C1(O)c2ccccc2-c2ccccc21.[Br-] (stereo not shown)
